Assay results reported in patent publication US5641775A, “3-phenylureido-1,5-benzodiazepine-diones useful as gastrin or antagonists” (Glaxo SpA, priority 1993, dated 1997).

Key:
CCK-A receptor = experiment: CCK receptor binding, CCK-A receptor (Pancreas Assay), Dal Forno procedure
Procedure: (§1) The greater affinity of the compounds of the invention for the CCK-B receptor over the CCK-A receptor has also been established using the CCK receptor binding assays described by G Dal Fornos et al., J. Pharmcol. Exp & Ther. 261, 1056-1063, 1992.
(§2) The binding affinity of the compounds of the invention for the CCK-A receptor (Pancreas Assay) and CCK-B receptor (guinea pig cortex assay) was determined using the procedure of G Dal Forno et al J. Pharmacol. Exp & Ther. 261-1056-1063. The pKi values determined with respresentative compounds of invention were as follows: […]

CCK-B receptor = biological target: T1, CCK-B receptor (Cavia porcellus, UniProt H0VZC5); experiment: CCK receptor binding, CCK-B receptor (guinea pig cortex assay), Dal Forno procedure; conditions: read-out: pKi CCK-B (converted)
T1 construct: CCK-B receptor (guinea pig cortex assay); from tissue; host or cells: guinea pig cortex
Procedure: as §1, §2

T1 sequence (H0VZC5 entry or part of it): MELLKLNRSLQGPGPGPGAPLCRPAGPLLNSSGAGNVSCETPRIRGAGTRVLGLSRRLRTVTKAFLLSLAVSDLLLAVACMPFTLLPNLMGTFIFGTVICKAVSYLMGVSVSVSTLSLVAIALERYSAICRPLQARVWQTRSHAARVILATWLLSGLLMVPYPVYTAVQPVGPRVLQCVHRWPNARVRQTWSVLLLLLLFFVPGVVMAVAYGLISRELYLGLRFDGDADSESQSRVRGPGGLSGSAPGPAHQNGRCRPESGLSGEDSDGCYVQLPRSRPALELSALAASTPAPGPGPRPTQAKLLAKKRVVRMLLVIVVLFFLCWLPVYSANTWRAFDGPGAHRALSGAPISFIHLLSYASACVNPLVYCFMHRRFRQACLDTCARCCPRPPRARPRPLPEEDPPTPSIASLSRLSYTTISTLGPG

Structure (SMILES) | pKi CCK-A (CCK-A receptor) | Ki (CCK-B receptor) [nM]
O=C(Nc1cccc(-c2nn[nH]n2)c1)NC1C(=O)N(CCC2CCCC2)c2ccccc2N(c2ccccc2F)C1=O (single isomer, unassigned; (-)) [Example 5, (-)-N-[1-(Cyclopentylethyl)-2,4-dioxo-5-(2-fluorophenyl)-2,3,4,5-tetrahydro-1H-benzodiazepin-3-yl]-N'-(3-tetrazolyl)phenylurea] | 6.51 | 0.269
CC(C)(C)CCN1C(=O)C(NC(=O)Nc2cccc(-c3nnn[nH]3)c2)C(=O)N(c2ccccc2)c2ccccc21 (stereo not drawn) [Example 3, N-[1-(3,3-Dimethylbutyl)-2,4-dioxo-5-phenyl-2,3,4,5-tetrahydro-1H-1,5-benzodiazepine-3-yl]-N'[3-(5-tetrazolyl)-phenyl]urea] | 7.64 | 0.288
O=C(Nc1cccc(-c2nn[nH]n2)c1)NC1C(=O)N(CCC2CCCC2)c2ccccc2N(c2ccccc2F)C1=O (single isomer, unassigned; (+)) [Example 4, (+)-N-[1-(Cyclopentylethyl)-2,4-dioxo-5-(2-fluorophenyl)-2,3,4,5-tetrahydro-1H-benzodiazepin-3-yl]-N'-(3-tetrazolyl)phenylurea] | 6.63 | 0.105
